From patent publication US12577245B2, “Sulfonyl benzamide derivatives as Bcl-2 inhibitors” (ASCENTAGE PHARMA (SUZHOU) CO., LTD., priority 2021, dated 2026) come the findings set out here.

One assay deals with MV-4-11 cells. Briefly: CCK-8 cell viability assay in MV-4-11 cells. The assay is classed as cell-based. To be noted: Homo sapiens, MV4-11, 72 h, 10% FBS, 3 days. The protocol:
MV-4-11 cells were obtained from University of Michigan. Cells were maintained in the RPMI-1640 medium with 10% FBS and 1% P/S at 37° C. and an atmosphere of 5% CO2.
• The effect of representative Compounds of the Disclosure on cell viability was determined using Cell Counting Kit-8 (CCK-8) assay (Shanghai Life iLab Biotech) according to the manufacturer's instructions. Each tested compound was serially diluted in culture medium, and 100 μL of the compound dilution was added to the corresponding well of the cell plate. 100 μL of MV-4-11 cell suspension (20000 cells/well) in culture medium were seeded into 96-well plates. The cells were incubated at 37° C. in an atmosphere of 5% CO2 for 3 days. At the end of 3 days, 20 μL of CCK-8 solution was added to each well of the plate and incubated for 1-4 hours. The plates were read at 450 nm on the Biotek plate reader. The readings were normalized to the vehicle cells, and the IC50 was calculated using GraphPad Prism 8 software.
For orientation: Tetrazolium assays rely on reduction of a dye to a coloured formazan, in cell work by metabolically active cells.

The next assay deals with RS4; 11Bcl-2-G101V cells. Briefly: CellTiter-Glo (CTG) cell viability assay in RS4;11-Bcl-2-G101V cells. It counts as cell-based. To be noted: 72 h, 10% FBS, 3 days. The protocol:
RS4; 11Bcl-2-G101V, RS4; 11Bcl-2-D103E, RS4; 11Bcl-2-V156D and RS4; 11Bcl-2-G101V-D103E cells were obtained from Cobioer Biosciences. Cells were maintained in the RPMI-1640 medium with 10% FBS, 1% P/S and puromycin (1 μg/mL) at 37° C. and an atmosphere of 5% CO2.
• The effect of representative Compounds of the Disclosure on cell viability was determined using CellTiter-Glo® (CTG) luminescent cell viability assay (Promega, USA) according to the manufacturer's instructions. 95 μL of cell suspension (10000 cells/well) in culture medium were seeded into 96-well plates and cultured 4 hours. Each tested compound was serially diluted in blank culture medium, and 5 μL of the compound dilution was added to the corresponding well of the cell plate. After the addition of the tested compound, the cells were incubated at 37° C. in an atmosphere of 5% CO2 for 3 days. At the end of 3 days, 30 μL of CTG solution was added to each well of the plate and mix contents for 2 minutes on an orbital shaker. Allow the plate to incubate at room temperature for 15 mins to stabilize signal and record RLU on the Biotek plate reader. The readings were normalized to the vehicle cells, and the IC50 was calculated using GraphPad Prism 8 software.

The target in a further assay is Bcl-2 WT (Homo sapiens, UniProt P10415). Briefly: Bcl-2 WT inhibition, fluorescence polarization (Flu-BIM tracer) binding assay.
Sequence of Bcl-2 WT (P10415 whole entry): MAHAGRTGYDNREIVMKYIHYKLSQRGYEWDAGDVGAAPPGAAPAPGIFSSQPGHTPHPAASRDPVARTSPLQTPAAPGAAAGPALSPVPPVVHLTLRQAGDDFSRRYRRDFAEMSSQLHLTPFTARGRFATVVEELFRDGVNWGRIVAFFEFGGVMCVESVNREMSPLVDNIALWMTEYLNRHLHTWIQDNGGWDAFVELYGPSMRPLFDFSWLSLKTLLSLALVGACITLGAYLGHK
[1] abbreviates: FP, 20 nM Bcl2, 5 nM Flu-BIM, 1 h incubation, read-out: Bcl-2 w.t. (FP).

Read-outs that look alike come from different tables or passages of the source.

On to `CC1(C)CCC(CN2CCN(c3ccc(C(=O)NS(=O)(=O)c4ccc(NC[C@H]5COCCO5)c([N+](=O)[O-])c4)c(Oc4cnc5[nH]ccc5c4)c3)CC2)=C(c2cc(C(=O)Nc3ccccc3)cs2)C1` [Example 17, (S)-5-(2-((4-(4-(((4-(((1,4-dioxan-2-yl)methyl)amino)-3-nitrophenyl)sulfonyl)carbamoyl)-3-((1H-pyrrolo[2,3-b]pyridin-5-yl)oxy)phenyl)piperazin-1-yl)methyl)-5,5-dimethylcyclohex-1-en-1-yl)-N-phenylthiophene-3-carboxamide], for which the results for the IC50 with MV-4-11 cells, with RS4; 11Bcl-2-G101V cells and at Bcl-2 WT were 262 nM, 4250 nM and 30.9 nM, respectively.
With `CC1(C)CCC(CN2CCN(c3ccc(C(=O)NS(=O)(=O)c4ccc(NC[C@H]5COCCO5)c([N+](=O)[O-])c4)c(Oc4cnc5[nH]ccc5c4)c3)CC2)=C(c2cc(NC(=O)c3ccccc3)cs2)C1` [Example 18, (S)—N-((4-(((1,4-dioxan-2-yl)methyl)amino)-3-nitrophenyl)sulfonyl)-2-((1H-pyrrolo[2,3-b]pyridin-5-yl)oxy)-4-(4-((2-(4-benzamidothiophen-2-yl)-4,4-dimethylcyclohex-1-en-1-yl)methyl)piperazin-1-yl)benzamide], the IC50 in the assay on MV-4-11 cells came out at 323 nM; in the assay on RS4; 11Bcl-2-G101V cells it was 2040 nM; on Bcl-2 WT (setting [1]) it was 37.5 nM.
Regarding `CC1(C)CCC(CN2CCN(c3ccc(C(=O)NS(=O)(=O)c4ccc(NC[C@H]5COCCO5)c([N+](=O)[O-])c4)c(Oc4cnc5[nH]ccc5c4)c3)CC2)=C(c2cc(Nc3ncccn3)cs2)C1` [Example 19, (S)—N-((4-(((1,4-dioxan-2-yl)methyl)amino)-3-nitrophenyl)sulfonyl)-2-((1H-pyrrolo[2,3-b]pyridin-5-yl)oxy)-4-(4-((4,4-dimethyl-2-(4-(pyrimidin-2-ylamino)thiophen-2-yl)cyclohex-1-en-1-yl)methyl)piperazin-1-yl)benzamide], the IC50 in the assay with MV-4-11 cells stood at 138 nM; with RS4; 11Bcl-2-G101V cells, 980 nM; at Bcl-2 WT (setting [1]), 24.6 nM.
On to `CC1(C)CCC(CN2CCN(c3ccc(C(=O)NS(=O)(=O)c4ccc(NCC5CCOCC5)c([N+](=O)[O-])c4)c(Oc4cnc5[nH]ccc5c4)c3)CC2)=C(c2csc(CN3CCOCC3)c2)C1` [Example 21, 2-((1H-pyrrolo[2,3-b]pyridin-5-yl)oxy)-4-(4-((4,4-dimethyl-2-(5-(morpholinomethyl)thiophen-3-yl)cyclohex-1-en-1-yl)methyl)piperazin-1-yl)-N-((3-nitro-4-(((tetrahydro-2H-pyran-4-yl)methyl)amino)phenyl)sulfonyl)benzamide], for which the IC50 in the assay with MV-4-11 cells worked out at 323 nM; in the assay with RS4; 11Bcl-2-G101V cells, 3790 nM; at Bcl-2 WT (setting [1]) it was 27.1 nM.
On the same counts, the results for `CC1(C)CCC(CN2CCN(c3ccc(C(=O)NS(=O)(=O)c4ccc(NC[C@H]5COCCO5)c([N+](=O)[O-])c4)c(Oc4cnc5[nH]ccc5c4)c3)CC2)=C(c2cc(CN3CCOCC3)cs2)C1` [Example 22, (S)—N-((4-(((1,4-dioxan-2-yl)methyl)amino)-3-nitrophenyl)sulfonyl)-2-((1H-pyrrolo[2,3-b]pyridin-5-yl)oxy)-4-(4-((4,4-dimethyl-2-(4-(morpholinomethyl)thiophen-2-yl)cyclohex-1-en-1-yl)methyl)piperazin-1-yl)benzamide] are 83 nM, 440 nM and 25.4 nM.
On the same counts, the results for `CC1(C)CCC(CN2CCN(c3ccc(C(=O)NS(=O)(=O)c4ccc(NC[C@H]5CC[C@@](C)(O)CC5)c([N+](=O)[O-])c4)c(Oc4cnc5[nH]ccc5c4)c3)CC2)=C(c2cc(CN3CCOCC3)cs2)C1` [Example 23, 2-((1H-pyrrolo[2,3-b]pyridin-5-yl)oxy)-4-(4-((4,4-dimethyl-2-(4-(morpholinomethyl)thiophen-2-yl)cyclohex-1-en-1-yl)methyl)piperazin-1-yl)-N-((4-((((1s,4s)-4-hydroxy-4-methylcyclohexyl)methyl)amino)-3-nitrophenyl)sulfonyl)benzamide] are 180 nM, 930 nM and 15.7 nM.
Taken in the same sequence, the figures for `CC1(C)CCC(CN2CCN(c3ccc(C(=O)NS(=O)(=O)c4ccc(NC[C@H]5CC[C@](C)(O)CC5)c([N+](=O)[O-])c4)c(Oc4cnc5[nH]ccc5c4)c3)CC2)=C(c2cc(CN3CCOCC3)cs2)C1` [Example 24, 2-((1H-pyrrolo[2,3-b]pyridin-5-yl)oxy)-4-(4-((4,4-dimethyl-2-(4-(morpholinomethyl)thiophen-2-yl)cyclohex-1-en-1-yl)methyl)piperazin-1-yl)-N-((4-((((1r,4r)-4-hydroxy-4-methylcyclohexyl)methyl)amino)-3-nitrophenyl)sulfonyl)benzamide] were 40 nM, 340 nM and 15.9 nM.
In the case of `CC1(C)CCC(CN2CCN(c3ccc(C(=O)NS(=O)(=O)c4ccc(NCC5CCOCC5)c([N+](=O)[O-])c4)c(Oc4cnc5[nH]ccc5c4)c3)CC2)=C(c2ccsc2CN2CCOCC2)C1` [Example 25, 2-((1H-pyrrolo[2,3-b]pyridin-5-yl)oxy)-4-(4-((4,4-dimethyl-2-(2-(morpholinomethyl)thiophen-3-yl)cyclohex-1-en-1-yl)methyl)piperazin-1-yl)-N-((3-nitro-4-(((tetrahydro-2H-pyran-4-yl)methyl)amino)phenyl)sulfonyl)benzamide], the IC50 with MV-4-11 cells stood at 225 nM; with RS4; 11Bcl-2-G101V cells it was 1810 nM; on Bcl-2 WT (setting [1]), 25.4 nM.
For the molecule `CC1(C)CCC(CN2CCN(c3ccc(C(=O)NS(=O)(=O)c4ccc(NCC5CCOCC5)c([N+](=O)[O-])c4)c(Oc4cnc5[nH]ccc5c4)c3)CC2)=C(c2ccc(CN3CCOCC3)s2)C1` [Example 26, 2-((1H-pyrrolo[2,3-b]pyridin-5-yl)oxy)-4-(4-((4,4-dimethyl-2-(5-(morpholinomethyl)thiophen-2-yl)cyclohex-1-en-1-yl)methyl)piperazin-1-yl)-N-((3-nitro-4-(((tetrahydro-2H-pyran-4-yl)methyl)amino)phenyl)sulfonyl)benzamide], the IC50 came to 246 nM in the assay with MV-4-11 cells, 2590 nM in the assay on RS4; 11Bcl-2-G101V cells and 26.4 nM at Bcl-2 WT (setting [1]).
In the case of `CC1(C)CCC(CN2CCN(c3ccc(C(=O)NS(=O)(=O)c4ccc(NC[C@H]5COCCO5)c([N+](=O)[O-])c4)c(Oc4cnc5[nH]ccc5c4)c3)CC2)=C(c2cc(CN3CCC(N4CCOCC4)CC3)cs2)C1` [Example 28, (S)—N-((4-(((1,4-dioxan-2-yl)methyl)amino)-3-nitrophenyl)sulfonyl)-2-((1H-pyrrolo[2,3-b]pyridin-5-yl)oxy)-4-(4-((4,4-dimethyl-2-(4-((4-morpholinopiperidin-1-yl)methyl)thiophen-2-yl)cyclohex-1-en-1-yl)methyl)piperazin-1-yl)benzamide], the IC50 amounted to 276 nM in the assay with MV-4-11 cells, 1210 nM in the assay with RS4; 11Bcl-2-G101V cells and 20.7 nM on Bcl-2 WT (setting [1]).
Taken in the same sequence, the figures for `C[C@@H]1CN(Cc2csc(C3=C(CN4CCN(c5ccc(C(=O)NS(=O)(=O)c6ccc(NC[C@H]7COCCO7)c([N+](=O)[O-])c6)c(Oc6cnc7[nH]ccc7c6)c5)CC4)CCC(C)(C)C3)c2)C[C@H](C)N1C` [Example 29, N-((4-((((S)-1,4-dioxan-2-yl)methyl)amino)-3-nitrophenyl)sulfonyl)-2-((1H-pyrrolo[2,3-b]pyridin-5-yl)oxy)-4-(4-((4,4-dimethyl-2-(4-(((3S,5R)-3,4,5-trimethylpiperazin-1-yl)methyl)thiophen-2-yl)cyclohex-1-en-1-yl)methyl)piperazin-1-yl)benzamide] were 422 nM, 750 nM and 26.7 nM.
Taken in the same sequence, the figures for `CC1(C)CCC(CN2CCN(c3ccc(C(=O)NS(=O)(=O)c4ccc(NC[C@H]5COCCO5)c([N+](=O)[O-])c4)c(Oc4cnc5[nH]ccc5c4)c3)CC2)=C(c2cc(CN3CCN4CCOC[C@H]4C3)cs2)C1` [Example 30, N-((4-((((S)-1,4-dioxan-2-yl)methyl)amino)-3-nitrophenyl)sulfonyl)-2-((1H-pyrrolo[2,3-b]pyridin-5-yl)oxy)-4-(4-((2-(4-(((R)-hexahydropyrazino[2,1-c][1,4]oxazin-8(1H)-yl)methyl)thiophen-2-yl)-4,4-dimethylcyclohex-1-en-1-yl)methyl)piperazin-1-yl)benzamide] were 564 nM, 1440 nM and 23.6 nM.
